Measured values from patent US10874108B2, “Anti-microbial compositions” (5D HEALTH PROTECTION GROUP LTD, priority 2016, dated 2020).
Where “and” joins values, the source holds several entries; their conditions need not be identical. Equal entries are not always repeated.

Assays:
[1] = tested on: P. aeruginosa 24-hour CDC biofilms; assay: Colonies after exposure of 24-hour CDC biofilms to EDTA compounds; type: cell-based
[2] = Displacement of metals from EDTA complexes by physiological saline; type: physicochemical
Description: Adding saline to the suspension of Ag4(EDTA), the suspension quickly precipitated a solid (AgCl). The precipitate was filtered off, washed with deionized water 4 times; and then dried in a vacuum oven at 50° C. in a dark flask to avoid exposure to direct light.
The displacement experiment described above was repeated for compounds 1-4 to provide the percent of the displacement of silver, copper, zinc from the EDTA complexes by physiological saline.

P. aeruginosa biofilms [3] = assay: MBEC plate 48-hour biofilm, liquid EDTA-Ag2-Zn compound; type: cell-based
Description: Biofilms were formed using the MBEC plate method. Log reduction (LR) values are expressed with standard error. N.D (not determined) is stated when no colonies were detected upon enumeration.

interleukin-6 (IL-6) = assay: IL-6 ELISA, wounded biofilm-containing Labskin; type: cell-based; conditions: 100 ppm; vs S. aureus wound biofilm control
Description: Enzyme-linked immunosorbent assay (ELISA) was used to assess the secreted levels of the inflammatory cytokine interleukin-6 (IL-6) according to previously published methods (Foster, A. M., Baliwag, J., Chen, C. S., Guzman, A. M., Stoll, S. W., Gudjonsson, J. E., Ward, N. L. & Johnston, A. 2014, IL-36 promotes myeloid cell infiltration, activation, and inflammatory activity in skin, The Journal of Immunology, 192, 6053-6061). […] The IL-6 levels were reduced further when compared to the S. aureus wound biofilm control.
ELISA was used to assess the levels of IL-6 in conditioned cell culture medium. Culture medium was changed at day 4, which accounts for the reduction in IL-6. […] Tests were performed in duplicate. Error bars indicate standard deviation.

[4] = tested on: S. aureus 24-hour CDC biofilms; assay: Colonies after exposure of 24-hour CDC biofilms to EDTA compounds; type: cell-based
cells = assay: Direct cytotoxicity, Neutral Red Uptake assay
[5] = tested on: S. aureus ATCC 29213 biofilm; assay: MBEC model (ASTM E2799), liquid formulas; type: cell-based; conditions: treated 24 hours
Description: (§1) The MBEC model (ASTM E2799) was used to assess the anti-biofilm efficacy of the liquid formulas. Biofilms were grown on polystyrene pegs in the MBEC model for either 24 or 48 hours before treatment. Using the liquid form of the EDTA complexes 24- and 48-hour biofilms were tested (Table 20).
(§2) 24- and 48-hour biofilms were formed using MBEC plate method and treated for 24 hours. Technical replicates n=3. Log reduction (LR) values show±standard error (SE) of LR value.

[6] = tested on: P. aeruginosa NCTC 10662 biofilm; assay: MBEC model (ASTM E2799), liquid formulas; type: cell-based; conditions: treated 24 hours
Description: as §1, §2

[7] = tested on: E. faecalis ATCC 29212 biofilm; assay: MBEC model (ASTM E2799), liquid formulas; type: cell-based; conditions: treated 24 hours
Description: as §1, §2

[8] = tested on: S. aureus MRSA BAA-43 biofilm; assay: MBEC model (ASTM E2799), liquid formulas; type: cell-based; conditions: treated 24 hours
Description: as §1, §2

[9] = tested on: S. epidermidis ATCC 35984 biofilm; assay: MBEC model (ASTM E2799), liquid formulas; type: cell-based; conditions: treated 24 hours
Description: as §1, §2

[10] = Elution from collagen films; type: physicochemical; conditions: for Elution in saline (ppm) EDTA / Elution in saline (ppm) Zinc / Elution in water (ppm) EDTA / Elution in saline (ppm) Silver / Elution in water (ppm) Silver / Elution in water (ppm) Zinc: collagen film; for Overall zinc eluted out from collagen films: 5 days; for In total EDTA eluted out from collagen films: over 5 days; for In total silver eluted out from collagen films: over the 5 days
Description: The EDTA compounds 1-4 were added to collagen films and then investigated for elution of these complexes. The collagen film was prepared from a solution of oxidized bovine atelocollagen type I, glycerol and EDTA compounds 1-4. 1.8 ml 10% glycerol solution was added into 20 ml oxidized bovine atelocollagen type I solution. 5 ml EDTA complex were added into the solution with vigorous stirring, and the mixture was adjusted to pH=7.0 by dropwise addition of 5% NaOH. The final solution was adjusted to 30 ml by ultrapure water and was cast into PVC mould. The solution was dried in a fume hood overnight. All the collagen films, impregnated with the EDTA complexes were immersed in water, saline or simulated wound fluid.

P. aeruginosa biofilms [11] = assay: CDC bioreactor biofilm LR/kill, EDTA compounds at 100 ppm silver; type: cell-based; conditions: 100 ppm of silver, exposed 24 hours
Description: (§3) Microbial cultures were exposed to compounds for 24 hours. Compounds were diluted according to 100 ppm of silver. Biofilms were formed using the CDC bioreactor. Samples were performed in triplicate.

S. aureus biofilms = assay: as above; type: cell-based; conditions: 100 ppm of silver, exposed 24 hours
Description: as §3

S. aureus wound biofilm = assay: Wound biofilm model (Labskin), histological examination; type: cell-based; conditions: 100 ppm; day 6; vs untreated S. aureus wound biofilm
[12] = day 1, listed as EDTA compound 4

## O=C([O-])CN(CCN(CC(=O)[O-])CC(=O)[O-])CC(=O)[O-].[Ag+].[Ag+].[Zn+2] [Compound 4, Ag2ZnEDTA]
[1]
  Number of colonies detected: 0 Cfu/ml
[2]
  Displacement (%) Silver: 80.77 ± 6.45%
  Displacement (%) Zinc: 38.86 ± 9.01 %
P. aeruginosa biofilms [3]; 62.5 ppm, treatment 1 hours
  % Kill: 100%
P. aeruginosa biofilms [3]; 62.5 ppm, treatment 24 hours
  % Kill: 100%
P. aeruginosa biofilms [3]; 125 ppm, treatment 1 hours
  % Kill: 100%
P. aeruginosa biofilms [3]; 125 ppm, treatment 24 hours
  % Kill: 100%
P. aeruginosa biofilms [3]; 250 ppm, treatment 1 hours
  % Kill: 100%
P. aeruginosa biofilms [3]; 250 ppm, treatment 24 hours
  % Kill: 100%
P. aeruginosa biofilms [3]; 500 ppm, treatment 1 hours
  % Kill: 100%
P. aeruginosa biofilms [3]; 500 ppm, treatment 24 hours
  % Kill: 100%
P. aeruginosa biofilms [3]; 1000 ppm, treatment 1 hours
  % Kill: 100%
P. aeruginosa biofilms [3]; 1000 ppm, treatment 24 hours
  % Kill: 100%
interleukin-6 (IL-6)
  secreted IL-6 (inflammatory marker): significant reduction
[4]
  Number of colonies detected: 0 Cfu/ml
cells; 25 ppm
  Interpretation: Cytotoxic (if the percentage viability is less than 70% of the untreated control, then the substance is considered cytotoxic)
  Percentage of Control/Percentage Viability (%): 62.67 ± 20.39%
cells; 50 ppm
  Interpretation: Non cytotoxic (if the percentage viability is less than 70% of the untreated control, then the substance is considered cytotoxic)
  Percentage of Control/Percentage Viability (%): 72.93% and 72.93 ± 12.90%
cells; 100 ppm
  Interpretation: Cytotoxic (if the percentage viability is less than 70% of the untreated control, then the substance is considered cytotoxic)
  Percentage of Control/Percentage Viability (%): 56.41 ± 1.83%
[5]; 50 ppm, 24-Hour Biofilm
  Kill %: 100%
  LR: 6.44
[5]; 50 ppm, 48-Hour Biofilm
  Kill %: 100%
  LR: 6.50
[5]; 100 ppm, 24-Hour Biofilm
  Kill %: 100%
  LR: 6.44
[5]; 100 ppm, 48-Hour Biofilm
  Kill %: 100%
  LR: 6.50
[6]; 50 ppm, 24-Hour Biofilm
  Kill %: 100%
  LR: 7.44
[6]; 50 ppm, 48-Hour Biofilm
  Kill %: 100%
  LR: 8.44
[6]; 100 ppm, 24-Hour Biofilm
  Kill %: 100%
  LR: 7.44
[6]; 100 ppm, 48-Hour Biofilm
  Kill %: 100%
  LR: 8.44
[7]; 50 ppm, 24-Hour Biofilm
  Kill %: 100%
  LR: 6.35
[7]; 50 ppm, 48-Hour Biofilm
  Kill %: 100%
  LR: 6.40
[7]; 100 ppm, 24-Hour Biofilm
  Kill %: 100%
  LR: 6.35
[7]; 100 ppm, 48-Hour Biofilm
  Kill %: 100%
  LR: 6.40
[8]; 50 ppm, 24-Hour Biofilm
  Kill %: 100%
  LR: 5.40
[8]; 50 ppm, 48-Hour Biofilm
  Kill %: 100%
  LR: 6.43
[8]; 100 ppm, 24-Hour Biofilm
  Kill %: 100%
  LR: 5.40
[8]; 100 ppm, 48-Hour Biofilm
  Kill %: 100%
  LR: 6.43
[9]; 50 ppm, 24-Hour Biofilm
  Kill %: 100%
  LR: 6.09
[9]; 50 ppm, 48-Hour Biofilm
  Kill %: 100%
  LR: 6.41
[9]; 100 ppm, 24-Hour Biofilm
  Kill %: 100%
  LR: 6.09
[9]; 100 ppm, 48-Hour Biofilm
  Kill %: 100%
  LR: 6.41
[10]; day 1
  Elution in saline (ppm) EDTA: 9.75 ± 1.31 ppm
  Elution in saline (ppm) Zinc: 5.65 ± 0.06 ppm
  Elution in water (ppm) EDTA: 9.25 ± 0.90 ppm
[10]; [12]
  Elution in saline (ppm) Silver: 20.34±1.42 ppm
  Elution in water (ppm) Silver: 19.08±0.92 ppm
  Elution in water (ppm) Zinc: 9.86±0.39 ppm
[10]; day 2
  Elution in saline (ppm) EDTA: 0.47 ± 0.35 ppm
  Elution in saline (ppm) Silver: 14.49 ± 2.63 ppm
  Elution in saline (ppm) Zinc: 6.26 ± 0.67 ppm
  Elution in water (ppm) EDTA: 0.96 ± 0.64 ppm
  Elution in water (ppm) Silver: 12.61 ± 1.04 ppm
  Elution in water (ppm) Zinc: 9.60 ± 0.33 ppm
[10]; day 3
  Elution in saline (ppm) EDTA: 0.40 ± 0.08 ppm
  Elution in saline (ppm) Silver: 15.23 ± 2.41 ppm
  Elution in saline (ppm) Zinc: 6.44 ± 0.60 ppm
  Elution in water (ppm) EDTA: 1.53 ± 1.08 ppm
  Elution in water (ppm) Silver: 10.64 ± 1.19 ppm
  Elution in water (ppm) Zinc: 8.08 ± 0.70 ppm
[10]; day 4
  Elution in saline (ppm) EDTA: −0.13 ± 0.90 ppm
  Elution in saline (ppm) Silver: 12.93 ± 2.10 ppm
  Elution in saline (ppm) Zinc: 5.58 ± 0.33 ppm
  Elution in water (ppm) EDTA: 0.24 ± 0.28 ppm
  Elution in water (ppm) Silver: 9.56 ± 0.79 ppm
  Elution in water (ppm) Zinc: 6.24 ± 0.40 ppm
[10]; day 5
  Elution in saline (ppm) EDTA: −0.07 ± 0.93 ppm
  Elution in saline (ppm) Silver: 13.30 ± 2.14 ppm
  Elution in saline (ppm) Zinc: 5.18 ± 0.15 ppm
  Elution in water (ppm) EDTA: 1.17 ± 1.31 ppm
  Elution in water (ppm) Silver: 10.35 ± 0.73 ppm
  Elution in water (ppm) Zinc: 6.53 ± 0.23 ppm
[10]; in saline
  Overall zinc eluted out from collagen films: 27.36%
  In total EDTA eluted out from collagen films: 13.44%
  In total silver eluted out from collagen films: 66.22%
[10]; in water
  Overall zinc eluted out from collagen films: 37.89%
  In total EDTA eluted out from collagen films: 16.95%
  In total silver eluted out from collagen films: 54.03%
P. aeruginosa biofilms [11]
  Kill %: 99.95%
  LR: 3.34 ± 0.11
S. aureus biofilms
  Kill %: 99.98%
  LR: 3.73 ± 0.18
S. aureus wound biofilm
  amount of microorganisms within the tissues (histology): reduced amount of microorganisms within the tissues
